Laboratory results reported in PubChem BioAssay (NCI).
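Where inhibition never reached the appropriate level, the endpoint shown equals the highest concentration tested. Otherwise, values were interpolated linearly from a five-concentration, 48-hour dose response in 96-well plates. The concentration for 50% growth inhibition is given as GI50. At the TGI there is no net growth.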

What was measured:
Experiment in all cases: DTP human tumour cell line panel, 48 h
[1] = tested on: 786-0 renal
[2] = tested on: A549 NSCLC
[3] = tested on: HOP-62 NSCLC
[4] = tested on: HS 578T breast
[5] = tested on: IGROV1 ovarian
[6] = tested on: LOX IMVI melanoma
[7] = tested on: OVCAR-3 ovarian
[8] = tested on: OVCAR-4 ovarian
[9] = tested on: SF-539 CNS
[10] = tested on: UACC-257 melanoma

Row | SMILES | GI50 [1] [µM] | TGI [1] [µM] | GI50 [2] [µM] | TGI [2] [µM] | GI50 [3] [µM] | TGI [3] [µM] | GI50 [4] [µM] | TGI [4] [µM] | GI50 [5] [µM] | TGI [5] [µM] | GI50 [6] [µM] | TGI [6] [µM] | GI50 [7] [µM] | TGI [7] [µM] | GI50 [8] [µM] | TGI [8] [µM] | GI50 [9] [µM] | TGI [9] [µM] | GI50 [10] [µM] | TGI [10] [µM]
1 | CSc1ccc(C2=NN(C(C)=O)C(c3cc(C)cs3)C2)cc1 (centres undefined) | 40 | > 100 | 27.2 | > 100 | 37.3 | > 100 | 22.3 | 88.6 | 29.7 | > 100 | 24.2 | > 100 | 23.9 | > 100 | 18 | > 100 | 39.8 | > 100 | 28.4 | 96.1
2 | CC1=C(C(=O)Nc2ccc3[nH]ncc3c2)C(c2ccc3ccccc3c2)CC(=O)N1 (centres undefined) | 15.1 | > 25 | > 25 | > 25 | 6.46 | > 25 | 0.873 | > 25 | 8.08 | > 25 | 13.2 | > 25 | > 25 | > 25 | 13.4 | > 25 | 9.18 | > 25 | > 25 | > 25
3 | COC(=O)CCCCN=Cc1c(O)c(O)c(C(C)C)c2cc(C)c(-c3c(C)cc4c(C(C)C)c(O)c(O)c(C=NCCCCC(=O)OC)c4c3O)c(O)c12 | 1.34 | 15.1 | 0.979 | > 32.5 | 1.22 | 9.21 | 1.49 | > 32.5 | 1.41 | > 32.5 | 0.822 | 2.43 | 1.02 | > 32.5 | 0.886 | > 32.5 | 1.53 | > 32.5 | – | –
4 | O=C(c1ccco1)c1nc2ccc(C(F)(F)F)cc2[n+]([O-])c1C(F)(F)F | > 100 | > 100 | 33.7 | > 100 | 33.6 | > 100 | > 100 | > 100 | 35.6 | > 100 | > 100 | > 100 | 98.8 | > 100 | 10.8 | 48.3 | 54 | > 100 | 26.5 | 99.4
5 | COc1cnc2cc(C(=O)O)c3c([N+](=O)[O-])cccc3c2c1 | – | > 100 | – | > 100 | – | > 100 | – | > 100 | – | > 100 | – | > 100 | – | > 100 | – | > 100 | – | – | – | > 100
6 | COC(=O)c1cc2c3ccccc3[nH]c2c2ncccc12 | 61.2 | > 100 | 75.1 | > 100 | 68.9 | > 100 | 15.4 | 87 | 2.09 | > 100 | 9.46 | > 100 | > 100 | > 100 | 57.3 | > 100 | 17.4 | > 100 | > 100 | > 100
7 | N#Cc1ccc(C#Cc2ccccc2C#CCCCCO)cc1 | 4.39 | 18.1 | 14.4 | 27.9 | 11.7 | 24 | 25.7 | 64.2 | 13.6 | 27.6 | 18.3 | 32.5 | 19.9 | 39.6 | 26.2 | 65.9 | 17.5 | 32 | 17.3 | 31.4
8 | CCCCC(=O)OCC1OC(n2cnc3c(=S)nc[nH]c32)C(OC(=O)CCCC)C1OC(=O)CCCC (centres undefined) | 2.24 | > 100 | > 25.3 | > 100 | 1.01 | > 100 | > 35.4 | > 100 | 3.86 | > 39.4 | 1.11 | > 100 | 1.01 | > 36.3 | 0.441 | > 100 | 2.07 | > 62 | 11.9 | > 100
9 | CCCCC/C(C=C(C#N)C#N)=C/c1ccccc1 | 7.45 | 21.6 | 8.95 | > 43.6 | 6.98 | 17.4 | 1.87 | 4.76 | 8.18 | 27.7 | 2.17 | 5.47 | 2.26 | 11.2 | 7.74 | > 55.8 | 5.17 | 17.7 | 17.2 | 47.6
10 | Cc1ccc(S(=O)(=O)N(CCOc2ccc(/C(N)=N/Cl)cc2)CCOc2ccc(/C(N)=N\Cl)cc2)cc1 | 34.6 | > 100 | 4.88 | > 100 | 12 | 33.2 | 4.28 | 22.7 | 11.7 | 40.7 | 16.7 | > 100 | 5.99 | 31 | 16.7 | > 100 | 11 | 27.2 | 23.3 | 90.5
11 | CN(C)CCC(=O)N1C/C(=C/c2ccccc2)C(=O)/C(=C\c2ccccc2)C1 | – | 3.62 | – | 13.5 | – | 16 | – | 20.3 | – | 7.02 | – | 1.27 | – | 7.05 | – | 7.98 | – | 11.9 | – | 4.61
12 | O=C1CNCCCN2CCN(CCCNCC(=O)Nc3ccc(cc3)S(=O)(=O)c3ccc(cc3)NC(=O)CNCCCN3CCN(CCCNCC(=O)Nc4ccc(cc4)S(=O)(=O)c4ccc(cc4)N1)CC3)CC2 | – | 38.9 | – | > 100 | – | > 63.7 | – | > 69.4 | – | > 69.7 | – | > 100 | – | > 89.4 | – | 97.7 | – | 44.6 | – | 32.7
13 | COc1cc(/C=C/c2cc(/C=C/c3ccc(O)c(OC)c3)n(-c3ccccc3)n2)ccc1O | 0.582 | 1.83 | 0.405 | 2.16 | 0.404 | 1.52 | 0.157 | > 23.2 | 0.532 | 4.02 | – | – | 0.266 | 0.938 | 0.536 | 4.95 | – | – | 1.22 | 4.72
14 | Cn1c(N2NC(=O)C(N=Nc3ccc(S(N)(=O)=O)cc3)C2=O)nc(-c2ccco2)c(C#N)c1=O (centres undefined) | > 50 | > 50 | > 50 | > 50 | > 50 | > 50 | 9.85 | 38.6 | > 50 | > 50 | 8.08 | 18.7 | 13.4 | > 50 | 8 | 23.9 | > 50 | > 50 | > 50 | > 50
15 | CCNCCNc1cc(-c2ccc(C(=O)OC)cc2)c(C#N)c2nc3ccccc3n12 | 1.56 | 3.46 | 1.46 | 5.01 | 2.48 | 9.46 | 2.42 | 7.48 | 2.38 | > 100 | 1.53 | 2.99 | 1.35 | 2.88 | – | – | 1.74 | 3.33 | 1.87 | 3.71
16 | CC1=C(CCCNS(C)(=O)=O)C2=C(C)C3(CC3)[C@@](C)(O)C(=O)C2=C1 | 0.816 | 6.32 | 1.64 | 24.8 | 0.421 | 2.33 | 2.73 | 11.1 | 0.259 | 1.15 | 1.8 | 6.34 | 0.89 | 4.7 | 0.9 | 5.32 | 0.969 | 3.26 | 1.78 | 4.41
17 | O=C(NCCOCCOCCNc1cccc2c1C(=O)N(C1CCCNC1=O)C2=O)c1cc2c(o1)C(=O)c1ccccc1C2=O (centres undefined) | 3.26 | 10.9 | 2.11 | 4.8 | 1.91 | 3.37 | 2.43 | 7.19 | 1.99 | 5.33 | 1.17 | 3 | 0.682 | 2.69 | 1.41 | 2.73 | 1.75 | 3.18 | 1.45 | 2.89
18 | CCOc1cccc(/C=N/NC(=O)c2ccccc2Nc2ccnc(C(F)(F)F)c2)c1O | 1.32 | 24 | 1.64 | > 100 | 0.901 | > 53.8 | 6.92 | > 100 | 0.0425 | 0.243 | 0.241 | > 100 | 0.37 | 51.7 | 0.18 | – | 0.501 | 6.33 | 0.693 | 47.6
19 | COc1ccc(/C(=C2\O[C@@H]([C@H]3COC(C)(C)O3)[C@H]3OC(C)(C)O[C@@H]23)c2cc(OC)c(OC)c(OC)c2)cc1O | 21.1 | 60.6 | 23.2 | > 100 | 5.93 | 25.5 | 2.83 | 7.88 | 33.2 | > 100 | 5.18 | > 100 | 2.38 | 5.34 | 9.18 | > 100 | 2.59 | 6.63 | > 100 | > 100
20 | C=C(CN1CCc2ccccc2C1)c1ccc(C(=O)Nc2cnccn2)cc1 | 25.4 | > 100 | 31 | > 100 | 27.1 | > 100 | 57.1 | > 100 | – | – | 9.18 | > 100 | 22.1 | 62.6 | 99.4 | > 100 | 7.59 | 83.3 | 83.6 | > 100
21 | O=[N+]([O-])/C=C\c1ccc(Cl)c(Cl)c1 | 1.89 | 3.56 | 2.37 | 5.43 | 2.88 | 9.57 | 2.42 | 7.6 | 0.602 | 2.02 | 0.412 | 1.73 | 1.96 | 3.94 | 11.5 | 24 | 3.83 | 18.2 | 1.4 | 2.89
22 | O=C(Nc1ccc(N2CCNCC2)cc1)c1[nH]ncc1Nc1cc(Oc2ccccc2)ncn1 | 1.84 | 3.33 | 1.07 | 2.95 | 2.24 | 6.05 | 3.06 | 14.8 | 3 | 11.3 | 0.22 | 0.54 | 2.18 | 6.26 | 2.59 | – | 1.69 | 3.35 | 2.86 | 8.69
23 | CSc1cc(N=Nc2nc3ccccc3s2)c2ccccc2c1O | 9.82 | 18.4 | 12.1 | 28.1 | 10.2 | 20 | 20.9 | > 50 | 7.64 | 24.3 | 5.97 | 12.7 | 7.89 | 19.3 | – | – | 0.0413 | 3.87 | 11.6 | 21.7
24 | O=C1c2c(c3c4ccccc4n(CCCCCCBr)c3c3[nH]c4ccccc4c23)C(=O)N1O | 2.09 | 5.81 | 3.31 | 12.1 | 2.52 | 9.06 | 5.14 | 45.9 | 2.13 | 9.38 | – | – | 3.06 | 13 | 3.45 | 23.4 | 1.78 | 3.77 | 2.74 | 6.04
25 | O=C(O)Cn1ccc(=O)c2ccc([N+](=O)[O-])cc21 | – | > 100 | – | > 100 | – | > 100 | – | > 100 | – | > 100 | – | – | – | > 100 | – | – | – | > 100 | – | > 100
26 | COC(=O)C[C@H]1CCC2(OCCO2)[C@]1(C)C(=O)OC | – | > 100 | – | > 100 | – | > 100 | – | – | – | > 100 | – | > 100 | – | > 100 | – | > 100 | – | > 100 | – | > 100
27 | CC(=O)Nc1ccccc1Sc1ccccc1 | – | > 100 | – | > 100 | – | > 100 | – | – | – | > 100 | – | > 100 | – | > 100 | – | > 100 | – | > 100 | – | > 100
